# Results from patent US20260284020A1, “LATS KINASE INHIBITOR TO TREAT RETINAL DEGENERATION” (Children's Hospital Los Angeles, priority 2023, published 2026).
# Entries after “also recorded” stand apart in the source; their conditions may differ.
# What was measured:
# [1] = system: RPE injury by laser photocoagulation in Dutch-belted rabbits; assay: In vivo laser injury model: fundus photos and OCT imaging; design: species or system rabbit; settings: listed as LKI; for OCT appearance of RPE layer at laser spots compared to control / pigmentation of laser spots on fundus photos compared to control: intravitreal 50 μL of 15 mM
# From the text: Laser photocoagulation was used as a model for RPE injury in vivo. Prior to laser photocoagulation, Dutch-belted rabbits were sedated with ketamine and xylazine. Eyes were anesthetized with topical proparacaine and dilated with phenylephrine and tropicamide. Lubricating drops and gel were applied to prevent desiccation of the cornea.
# To evaluate the effect of LATS kinase inhibition on the RPE injury response in vivo, following sedation and pharmacologic dilation, laser photocoagulation was delivered in a 6×6 grid pattern to both eyes with a 532 nm green laser (Iridex Corporation, Mountain View, CA, USA) mounted on an indirect ophthalmoscope. Power was set to 170 mW and pulse duration was set to 40 ms. Following the laser procedure, fundus photos of both eyes were obtained using a 28-diopter lens and smartphone. OCT images of both eyes were obtained on a SPECTRALIS (Heidelberg Engineering, Heidelberg, Germany) imaging system. Fundus photos and OCT images were again obtained at 1- and 4-week time points.
# Dutch-belted rabbits were sedated and underwent photocoagulation of both eyes as described above, with the exception of lesion intensity alteration. Instead, laser power was held at 170 mW and pulse duration remained at 40 ms.
# (§1) Following the laser procedure, the eyes were anesthetized once more with topical proparacaine. Povidone-iodine was applied to the conjunctiva or sclera using sterile Q-tips. Either 50 μL of 15 mM LATS kinase inhibitor (LKI), or vehicle control, was injected per eye using 1 mL Luer-lock syringe with a 27G 1½ inch needle. The second generation LKI, TDI-011536, was used as a micro-suspension formulation prepared in phosphate buffer solution (PBS; Sigma) supplemented with 0.5% carboxymethyl cellulose (Sigma) and 0.5% Kolliphor P 188 Bio (BASF Pharma). Intravitreal injections containing LKI were administered in the right eye and control injections were administered in the left eye. Injections were administered 1-2 mm posterior to the superotemporal or superonasal limbus and delivery of each compound was confirmed on indirect ophthalmoscopy.
# To evaluate the effect of Lats kinase inhibition on the RPE injury response in vivo, 17 Dutch-belted rabbits received photocoagulation procedure to cause focal disruptions of the RPE and photoreceptor layers in a 6×6 grid of laser spots. Following photocoagulation, each animal received an intravitreal injection of 50 μL of 15 mM LKI in the right eye ([…]) and 50 μL vehicle in the left eye (n=17 eyes). Fundus photos and OCT imaging were performed immediately following the laser procedure and at 1- and 4-week time points. Three independent experiments were performed.
# [2] = system: RPE injury by laser photocoagulation in Dutch-belted rabbits; assay: In vivo laser injury model: retinal immunohistochemistry, quantification of cell proliferation; design: species or system rabbit; settings: for percentage of Ki67+ cells in the choroid vs control (in words): 1- or 4-week time points
# Procedure: as §1
# Eyes used for immunofluorescence staining were processed according to a previously described protocol. Briefly, eyes were immediately placed in 50 mL 4% PFA in PBS on ice. After 15 minutes, eyes were removed from 4% PFA in PBS and the cornea and iris were removed under a dissecting microscope. With the cornea and iris removed, eyes were placed back in 50 mL 4% PFA and agitated overnight at 4° C. The following morning, the lens was removed. Eyes were then placed in 50 mL of 30% sucrose in PBS at 4° C. for cryoprotection. Once cryoprotection was complete, eyes were removed from 30% sucrose solution and embedded in optimal cutting temperature (OCT) compound.
# Following embedding, eyes were mounted on a Leica cryostat (Leica Microsystems, Wetzlar, Germany) for sectioning. All retinal sections were 14 μm thickness and attached to a glass slide. A list of materials used can be found in Table 1.
# To quantify RPE proliferation at the site of laser injury in vivo, regions 400 μm in width were centered on the outer nuclear layer (ONL) defect. Laser spots with ONL defects <30 μm in diameter, retinal detachments >225 μm, or an adjacent laser spot <200 μm away from the center of the ONL defect were excluded from analysis. Additionally, laser spots with significant tissue folding or tears were excluded. RPE cross-sectional area in μm^2 was obtained using the Wand Tool in QuPath using the RPE65 channel. RPE proliferation was quantified as the number of Ki67+ cells divided by DAPI+ cells within the RPE layer, expressed as a percentage. Choroidal proliferation was quantified as the number of Ki67+ cells divided by DAPI+ cells in the choroid.
# To evaluate the effect of LKI on Müller glia at the site of injury, glial cell proliferation was quantified as the number of Ki67/Sox2 doubly positive cells divided by total number of Sox2/DAPI doubly positive cells within the 400 μm laser region, expressed as a percentage.
# To evaluate the effect of LKI in undamaged retina, regions 400 μm in width in the peripheral retina were analyzed. The percentages of Ki67+ cells in the RPE layer, Ki67/Sox2 doubly positive cells, and Ki67+ cells in the choroid in unaffected regions were calculated in an identical fashion.
# To further evaluate the effect of Lats kinase inhibition on the RPE injury response in vivo, eyes injected with LKI (n=9 eyes) or vehicle (n=8 eyes) from three independent experiments were cryosectioned and immunolabeled with Ki-67, a marker of cell proliferation. Additionally, sections were labeled with RPE65 to visualize RPE, Sox2 to visualize Müller glia, and Dapi to label all cell nuclei. […] RPE cross-sectional area was 14129±5605 μm^2 in LKI laser spots and 6221±914.2 μm^2 in control laser spots (P<0.0001). RPE maximal thickness was 56.36±19.23 μm in LKI laser spots and 23.08±8.46 μm in control laser spots (P<0.0001). Within the RPE layer, there was a significant increase in Ki67+ cells with LKI compared to the control (FIG. 5A, 5D). The percentage of Ki67+ RPE was 8.75±4.22% in LKI laser spots and 1.55±3.21% in control laser spots (P<0.001). […]
# [3] = laser spots, 1 week, intravitreal 50 μL of 15 mM, mean±SD
# [4] = laser spots, 1 week, listed as LKI
compound,measurement,setting,value
O=C(/N=c1\scc(CO)n1Cc1ccccc1)c1c[nH]c2ncccc12 [TDI-011536],OCT appearance of RPE layer at laser spots compared to control,[1]; 1 week after laser,thickening of the RPE layer with associated shadowing; also recorded: Shadowing (*) was common; also recorded: appeared thicker with increased shadowing
same,pigmentation of laser spots on fundus photos compared to control,[1]; 1 week after laser,hyperpigmentation of laser spots; also recorded: increased pigmentation
same,OCT appearance of RPE layer at laser spots compared to control,[1]; 4 weeks after laser,more pronounced; also recorded: Shadowing (*) was common; also recorded: significantly increased thickness of the RPE layer
same,pigmentation of laser spots on fundus photos compared to control,[1]; 4 weeks after laser,more pronounced; also recorded: robust increase in pigmentation
same,persistence of LKI microsuspension (depot) in the eye,"[1]; rabbit eye, intravitreal 50 μL of 15 mM microsuspension",visible after 1 week; also recorded: up to a month
same,Ki67+ (Sox2/Ki67 doubly positive) Müller glia in undamaged regions (outside of laser spots),"[2]; 1 week, listed as LKI",no Sox2/Ki67++ cells
same,Ki67+ cells within the RPE layer in undamaged regions (outside of laser spots),"[2]; 1 week, listed as LKI",no Ki67+ RPE cells
same,Ki67+ (Sox2/Ki67 doubly positive) Müller glia in undamaged regions,"[2]; 4 weeks, listed as LKI",no Sox2/Ki67++ cells
same,Ki67+ cells within the RPE layer in undamaged regions,"[2]; 4 weeks, listed as LKI",no Ki67+ RPE cells
same,percentage of Ki67+ cells in the choroid vs control (in words),[2]; laser regions,no significant difference
same,RPE cross-sectional area,[2]; [3],14129±5605 μm^2
same,RPE maximal thickness,[2]; [3],56.36±19.23 μm
same,Ki67+ Sox2+ cells (Müller glia) compared to control (in words),[2]; [4],Sox2+ and Ki67+Müller glia were observed; also recorded: significantly in increased
same,RPE cross-sectional area compared to control (in words),[2]; [4],increase in underlying RPE cross-sectional area; also recorded: significantly increased
same,percentage of Ki67+ RPE cells compared to control (in words),[2]; [4],increase; also recorded: significantly increased
same,Ki67+ cells within the choroid,"[2]; laser spots, 1 week, mean±SD",6.66±5.37%
same,percentage of Ki67+ RPE (Ki67+ cells within the RPE layer),"[2]; laser spots, 1 week, mean±SD",8.75±4.22%
same,percentage of Ki67+ Sox2+ cells (Müller glia),"[2]; laser spots, 1 week, mean±SD",11.00±5.11%
same,Ki67+ Sox2+ cells (Müller glia) compared to control (in words),"[2]; laser spots, 4 weeks",no significant difference
same,RPE maximal thickness compared to control (in words),"[2]; laser spots, 4 weeks",increase in underlying RPE cross-sectional area and maximal thickness
same,percentage of Ki67+ RPE cells compared to control (in words),"[2]; laser spots, 4 weeks",no significant difference
same,RPE cross-sectional area,"[2]; laser spots, 4 weeks, intravitreal 50 μL of 15 mM, mean±SD",15800 ± 6530 µm²
same,RPE cross-sectional area compared to control (in words),"[2]; laser spots, 4 weeks, listed as LKI",increase in RPE cross-sectional area; also recorded: significantly increased
same,Ki67+ cells within the choroid,"[2]; laser spots, 4 weeks, mean±SD",0.39±0.71%
same,percentage of Ki67+ RPE (Ki67+ cells within the RPE layer),"[2]; laser spots, 4 weeks, mean±SD",0.29±0.90%
same,percentage of Ki67+ Sox2+ cells (Müller glia),"[2]; laser spots, 4 weeks, mean±SD",1.23±3.25%
same,overall effect of intravitreal LKI microsuspension in the laser injury model (in words),"[2]; rabbits, intravitreal 50 μL of 15 mM microsuspension",extensive RPE proliferation and wound healing without measurable effects on off-target cell types or uninjured regions
same,percentage of Ki67+ cells in the choroid vs control (in words),[2]; undamaged regions,no significant difference
